Measurements: ChEMBL document CHEMBL1201862, “PubChem BioAssay data set” (2004)
One block for each compound: values may come before it. Calls of active or inactive are those of the source.

Assays:
[1] = blockers of bursicon-stimulated LGR2 cAMP reporter – cell-based, HEK293, CRE-luciferase reporter, cherry pick, set 2, dose response (AID 743343); assay type: functional;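 also: transfected cells were stimulated with diluted bursicon conditioned medium after compound addition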
[2] = blockade of melanocortin 4 receptor signaling – cell-based, plate reader, cherry pick, counter-screen for LGR2 antagonist project, dose response (AID 743444); assay type: functional;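 also: transfected HEK 293 cells stimulated with alpha-MSH peptide; potency of inhibitors of the alpha-MSH evoked signal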
[3] = A549 cell cytotoxicity, dose response, cytotoxicity control, plate reader, cherry-pick, antagonist series (AID 743412); assay type: functional, cell-based
[4] = toxicity toward HepG2 liver cells – cell-based, plate reader, cherry-pick, antagonist series, cytotoxicity control, dose response (AID 743416); assay type: functional
[5] = viability loss in HEK293 cells – cell-based, plate reader, cherry-picked samples, cytotoxicity control, dose response (AID 743446); assay type: functional
[6] = biological target: Paired box protein Pax-8 (Homo sapiens, UniProt Q06710); assay: PAX8 transcriptional activity inhibition in RMG-I – RMG-I cells, luciferase, cherry-pick, dose response (AID 687027); assay type: functional, cell-based;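 also: luciferase reporter driven by Pax8 target thyroperoxidase promoter measured by SteadyGlo luminescence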
[7] = general cell-killing toxicity readout – plate reader, dry powder samples, cytotoxicity control for PAX8 inhibitor project, dose response (AID 743021); assay type: functional, cell-based
[8] = OVCAR-3 cell viability loss – plate reader, dry powder samples, PAX8 inhibitor project, dose response (AID 743044); assay type: functional, cell-based
[9] = toxicity to human hepatoma HepG2 cells – cell-based, cherry-picked samples, cytotoxicity control, dose response (AID 1159577); assay type: functional
[10] = IGROV1 cell killing – plate reader, dry powder samples, PAX8 inhibitor project, dose response (AID 743043); assay type: functional, cell-based; conditions: IGROV-1
[11] = A2780 cell killing – plate reader, dry powder samples, cytotoxicity control, dose response (AID 743046); assay type: functional, cell-based
[12] = OVCAR8 cell viability loss – plate reader, dry powder samples, PAX8 project, dose response (AID 743197); assay type: functional, cell-based; conditions: OVCAR-8
[13] = P. falciparum Dd2 growth inhibitors, dose response, SYBR Green, cherry-picked samples (AID 1159567); assay type: functional, cell-based
[14] = toxicity toward immortalized ovarian surface epithelium – cell-based, plate reader, dry powder samples, cytotoxicity control for PAX8 inhibitor project, dose response (AID 743045); assay type: functional
[15] = viability loss in MITF-independent A375 cells – cell-based, CellTiter-Glo luminescence, dry powder, set 2, counter-screen for MITF inhibitor project, dose response (AID 624489); assay type: functional; conditions: A-375;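 also: actives are compounds lowering A375 viability meaning general cytotoxicity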
[16] = cytotoxicity in MITF-independent A375 cells – cell-based, CellTiter-Glo luminescence, dry powder, set 4, counter-screen for MITF inhibitor project, dose response (AID 624364); assay type: functional; conditions: A-375;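 also: A375 melanoma cells are MITF independent so this is a counter screen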
[17] = biological target: 1-phosphatidylinositol 4,5-bisphosphate phosphodiesterase beta-3 (Homo sapiens, UniProt Q01970); assay: Fluorescence-based biochemical high throughput dose response assay to identify inhibitors of phospholipase C isozymes (PLC-B3).
[18] = biological target: 1-phosphatidylinositol 4,5-bisphosphate phosphodiesterase gamma-1 (Homo sapiens, UniProt P19174); assay: Counterscreen for inhibitors of phospholipase C isozymes (PLC-B3): Fluorescence-based biochemical high throughput dose response assay to identify inhibitors of phospholipase C isozymes (PLC-gamma1).
[19] = potency of ADAM10 substrate cleavage blockers – biochemical, QFRET, dose response (AID 743254);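 also: ADAM10 enzyme with the DM2 quenched FRET peptide as substrate; EDANS fluorescence gain as the protease cuts the substrate; inhibitor potency against ADAM10 proteolytic activity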
[20] = biological target: Disintegrin and metalloproteinase domain-containing protein 17 (Homo sapiens, UniProt P78536); assay: inhibition of ADAM17 substrate cleavage – biochemical, quenched FRET substrate, counter-screen for ADAM10 exosite inhibitor project, dose response (AID 743253)
Disintegrin and metalloproteinase domain-containing protein 17, sequence (P78536 whole entry, the tested form may be a part): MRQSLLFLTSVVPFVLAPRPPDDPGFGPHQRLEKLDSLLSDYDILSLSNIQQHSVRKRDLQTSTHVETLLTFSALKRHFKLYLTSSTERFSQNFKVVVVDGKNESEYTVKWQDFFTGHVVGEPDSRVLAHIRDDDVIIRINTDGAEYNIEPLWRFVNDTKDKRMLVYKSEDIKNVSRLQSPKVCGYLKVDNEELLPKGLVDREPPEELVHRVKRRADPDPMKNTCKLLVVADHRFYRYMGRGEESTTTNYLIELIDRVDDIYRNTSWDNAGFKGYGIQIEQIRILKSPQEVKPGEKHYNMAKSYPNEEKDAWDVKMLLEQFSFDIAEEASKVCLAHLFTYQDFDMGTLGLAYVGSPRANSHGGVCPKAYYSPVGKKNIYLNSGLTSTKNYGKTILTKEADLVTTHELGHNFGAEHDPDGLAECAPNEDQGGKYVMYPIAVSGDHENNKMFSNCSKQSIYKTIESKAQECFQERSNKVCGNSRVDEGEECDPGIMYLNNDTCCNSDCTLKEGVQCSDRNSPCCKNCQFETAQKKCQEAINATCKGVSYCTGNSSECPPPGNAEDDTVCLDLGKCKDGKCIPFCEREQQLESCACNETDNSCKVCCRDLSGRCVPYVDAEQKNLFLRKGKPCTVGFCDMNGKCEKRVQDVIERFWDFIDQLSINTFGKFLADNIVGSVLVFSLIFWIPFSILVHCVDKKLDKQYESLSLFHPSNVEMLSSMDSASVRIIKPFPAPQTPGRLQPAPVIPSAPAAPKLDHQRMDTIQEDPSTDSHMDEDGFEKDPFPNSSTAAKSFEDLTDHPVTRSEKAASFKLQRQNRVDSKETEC

Paired box protein Pax-8, sequence (Q06710 whole entry): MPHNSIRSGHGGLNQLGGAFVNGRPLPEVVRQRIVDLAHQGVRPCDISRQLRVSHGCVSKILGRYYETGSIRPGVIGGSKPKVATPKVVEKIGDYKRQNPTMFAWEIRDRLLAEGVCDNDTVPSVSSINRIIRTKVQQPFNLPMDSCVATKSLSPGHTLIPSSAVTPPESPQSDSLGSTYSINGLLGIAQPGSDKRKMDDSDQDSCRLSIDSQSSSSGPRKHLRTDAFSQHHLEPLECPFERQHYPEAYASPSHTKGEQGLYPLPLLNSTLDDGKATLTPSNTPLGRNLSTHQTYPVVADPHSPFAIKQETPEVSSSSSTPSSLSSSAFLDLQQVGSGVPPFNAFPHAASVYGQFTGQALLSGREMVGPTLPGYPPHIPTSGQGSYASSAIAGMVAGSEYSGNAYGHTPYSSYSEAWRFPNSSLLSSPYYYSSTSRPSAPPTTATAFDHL
1-phosphatidylinositol 4,5-bisphosphate phosphodiesterase beta-3, sequence (Q01970 whole entry): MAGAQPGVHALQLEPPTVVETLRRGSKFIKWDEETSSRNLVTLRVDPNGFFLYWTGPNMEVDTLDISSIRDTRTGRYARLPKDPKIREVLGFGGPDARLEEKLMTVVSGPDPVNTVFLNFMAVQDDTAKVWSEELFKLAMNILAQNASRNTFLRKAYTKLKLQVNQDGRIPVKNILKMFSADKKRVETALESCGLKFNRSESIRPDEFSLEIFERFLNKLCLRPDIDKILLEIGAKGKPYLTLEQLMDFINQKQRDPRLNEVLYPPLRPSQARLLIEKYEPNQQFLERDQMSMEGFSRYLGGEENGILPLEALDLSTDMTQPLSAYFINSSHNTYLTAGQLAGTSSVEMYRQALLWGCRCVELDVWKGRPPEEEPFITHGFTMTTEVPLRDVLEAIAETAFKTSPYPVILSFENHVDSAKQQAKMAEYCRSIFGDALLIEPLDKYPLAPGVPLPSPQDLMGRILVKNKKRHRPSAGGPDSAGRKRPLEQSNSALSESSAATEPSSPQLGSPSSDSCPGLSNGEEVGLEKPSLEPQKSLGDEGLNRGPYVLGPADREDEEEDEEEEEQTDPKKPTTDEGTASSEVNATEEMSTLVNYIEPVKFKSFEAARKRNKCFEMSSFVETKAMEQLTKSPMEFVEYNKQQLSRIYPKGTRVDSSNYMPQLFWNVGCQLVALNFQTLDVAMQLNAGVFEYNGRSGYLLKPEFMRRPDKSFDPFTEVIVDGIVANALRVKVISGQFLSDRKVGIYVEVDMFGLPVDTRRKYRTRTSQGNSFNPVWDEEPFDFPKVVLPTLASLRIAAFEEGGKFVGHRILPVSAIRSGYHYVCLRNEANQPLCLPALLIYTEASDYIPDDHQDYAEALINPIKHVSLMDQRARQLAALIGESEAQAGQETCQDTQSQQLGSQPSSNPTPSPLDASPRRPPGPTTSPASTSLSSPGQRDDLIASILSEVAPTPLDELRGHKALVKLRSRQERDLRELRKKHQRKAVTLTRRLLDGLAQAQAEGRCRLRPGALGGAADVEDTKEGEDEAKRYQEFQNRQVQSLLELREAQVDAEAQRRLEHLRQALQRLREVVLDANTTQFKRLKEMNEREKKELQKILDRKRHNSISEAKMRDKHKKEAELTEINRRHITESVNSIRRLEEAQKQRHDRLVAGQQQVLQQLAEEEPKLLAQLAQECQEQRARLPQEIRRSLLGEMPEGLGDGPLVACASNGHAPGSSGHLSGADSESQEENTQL
1-phosphatidylinositol 4,5-bisphosphate phosphodiesterase gamma-1, sequence (P19174 whole entry): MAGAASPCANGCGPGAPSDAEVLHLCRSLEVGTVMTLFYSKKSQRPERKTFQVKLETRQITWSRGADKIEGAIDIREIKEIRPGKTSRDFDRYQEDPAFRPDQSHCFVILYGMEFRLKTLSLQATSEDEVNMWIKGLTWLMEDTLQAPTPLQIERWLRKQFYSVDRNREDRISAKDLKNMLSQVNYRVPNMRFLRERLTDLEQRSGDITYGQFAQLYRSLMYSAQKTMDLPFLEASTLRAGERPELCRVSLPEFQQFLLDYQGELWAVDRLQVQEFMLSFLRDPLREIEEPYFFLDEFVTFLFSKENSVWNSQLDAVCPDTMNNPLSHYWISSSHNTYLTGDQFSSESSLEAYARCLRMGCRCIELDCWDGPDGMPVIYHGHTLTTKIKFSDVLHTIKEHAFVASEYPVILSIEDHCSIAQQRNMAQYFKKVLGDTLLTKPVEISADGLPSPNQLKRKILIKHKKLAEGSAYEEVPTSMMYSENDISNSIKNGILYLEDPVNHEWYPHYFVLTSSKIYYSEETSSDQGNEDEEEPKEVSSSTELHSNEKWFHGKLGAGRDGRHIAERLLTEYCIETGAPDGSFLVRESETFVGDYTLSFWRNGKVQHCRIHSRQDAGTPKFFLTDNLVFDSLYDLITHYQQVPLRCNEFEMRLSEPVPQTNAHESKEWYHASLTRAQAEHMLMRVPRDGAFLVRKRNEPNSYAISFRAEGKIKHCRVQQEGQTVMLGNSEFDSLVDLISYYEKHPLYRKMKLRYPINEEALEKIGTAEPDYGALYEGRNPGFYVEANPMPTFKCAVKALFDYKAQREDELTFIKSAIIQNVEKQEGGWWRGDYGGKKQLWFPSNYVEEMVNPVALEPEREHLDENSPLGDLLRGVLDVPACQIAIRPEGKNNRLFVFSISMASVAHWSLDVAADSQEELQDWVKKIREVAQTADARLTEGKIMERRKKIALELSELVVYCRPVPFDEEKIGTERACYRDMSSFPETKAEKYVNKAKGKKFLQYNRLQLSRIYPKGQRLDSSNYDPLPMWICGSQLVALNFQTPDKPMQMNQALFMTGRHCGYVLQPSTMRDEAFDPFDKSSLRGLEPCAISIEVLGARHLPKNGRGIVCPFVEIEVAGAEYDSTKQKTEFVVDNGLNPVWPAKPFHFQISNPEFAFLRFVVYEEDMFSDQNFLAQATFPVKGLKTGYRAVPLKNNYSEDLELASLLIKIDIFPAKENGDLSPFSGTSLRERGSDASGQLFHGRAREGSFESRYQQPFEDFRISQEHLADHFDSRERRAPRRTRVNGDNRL

SMILES: CCCCn1nnnc1C(CCc1ccccc1)N1CCC(n2c(O)nc3ccccc32)CC1 (stereo not given)
- AC50 [1]: 20.1 µM (active)
- AC50 [2]: 7.55 µM (active)
- AC50 [3]: 19 µM (active)
- AC50 [4]: > 52 µM (inactive)
- AC50 [5]: 19.8 µM (active)

SMILES: CCCCc1c(-c2cccc(OC)c2)ncn1CCc1ccccc1OC
- AC50 [1]: 16.3 µM (active)
- AC50 [2]: 12.9 µM (active)
- AC50 [3]: 19.2 µM (active)
- AC50 [4]: 15.1 µM (active)
- AC50 [5]: 29 µM (active)

SMILES: COc1ccc(S(=O)(=O)N(C)C[C@@H]2OCCCC[C@H](C)Oc3ccc(NS(=O)(=O)c4ccc(Cl)cc4)cc3C(=O)N([C@H](C)CO)C[C@@H]2C)cc1
- AC50 [6]: 4.8 µM (active)
- AC50 [7]: 58.4 µM (active)
- AC50 [8]: 26.9 µM (active)

SMILES: C(=C\c1ccc([C@H]2[C@@H]3CN(Cc4ccc5c(c4)OCO5)C[C@H]2N3)cc1)/c1ccccc1
- AC50 [9]: 8.83 µM (active)
- AC50 [10]: 18.8 µM (active)
- AC50 [11]: 12 µM (active)
- AC50 [12]: 35.1 µM (active)
- AC50 [13]: 2.83 µM (active)
- AC50 [6]: 20.2 µM (active)
- AC50 [14]: 32.4 µM (active)
- AC50 [7]: 31.7 µM (active)
- AC50 [8]: 17.6 µM (active)

SMILES: Cc1cccc(S(=O)(=O)N2CCCCN3[C@H](CO)[C@H](c4ccc(C#CC(C)C)cc4)[C@H]3C2)c1
- AC50 [10]: 39.5 µM (active)
- AC50 [12]: 28.4 µM (active)
- AC50 [6]: 9.99 µM (active)
- AC50 [14]: 36.9 µM (active)
- AC50 [8]: 9.65 µM (active)

SMILES: COc1ccc(C(=O)NC2=C(c3ccc(OC(F)(F)F)cc3)C(=O)c3ccccc3C2=O)cc1
- AC50 [15]: 23.4 µM (active)
- AC50 [16]: 41 µM (active)

- IC50 [17]: > 122 µM (inactive)
- IC50 [18]: > 4.54 µM (active)
SMILES: CC(=O)N1C[C@@H](c2c[nH]c3ccccc23)C=C[C@H]1C(=O)NS(=O)(=O)c1ccc(C)cc1

- IC50 [19]: > 69.5 µM (inactive)
- IC50 [20]: > 69.5 µM (inactive)
SMILES: CCOc1ccc(/C=N/NC(=O)Cc2csc(Nc3cccc(C(F)(F)F)c3)n2)c(OCC)c1

SMILES: O=C(NC1=C(c2ccccc2)C(=O)c2ccccc2C1=O)c1ccccc1
- AC50 [15]: 18.3 µM (active)
- AC50 [16]: 47.5 µM (active)
